Key:
[1] = test system: E. chaffeensis cell-free organisms (DC and RC fractions); test: Protein synthesis by 35S-cysteine-methionine incorporation in cell-free E. chaffeensis in axenic medium; format: cell-based, Ehrlichia chaffeensis; conditions: for protein synthesis (35S Cys-Met incorporation) when inhibitor included in the media: axenic media with G6P, 24 h, renografin-purified organisms, FIG. 1; for protein biosynthesis with different energy sources: RC form recovered from DH82 cultures, axenic medium supplemented with the carbon source, FIGS. 5A and 5B
Protocol: Protein synthesis by ^35S-cysteine-methionine incorporation: Protein synthesis in cell-free purified fractions of E. chaffeensis was measured by incorporation of ^35S-Cys-Met (Perkin Elmer, Waltham, Mass.) as described by Omsland, A., et al., in Developmental stage-specific metabolic and transcriptional activity of Chlamydia trachomatis in an axenic medium. Proc Natl Acad Sci USA. […] For normalization of bacterial total protein content, the suspension of E. chaffeensis cell-free fractions were lysed in 1% (wt/vol) SDS for 5 minutes at 100° C. and the total protein concentration was determined using Protein Assay kit (Bio-Rad, Hercules, Calif.). Subsequently, the suspensions of E. chaffeensis cell-free fractions were equally split into micro-centrifuge tubes at the amount of 30 μg total protein. Partially opened micro-centrifuge tubes containing 500 μL of medium supplemented with 70 μCi of ^35S-Cys-Met were incubated at 37° C. for 24 hours in a tri-gas incubator set to maintain 2.5% O2. E. chaffeensis cell-free organisms were pelleted at the end of incubation by centrifugation at 15,000×g for 15 minutes at 4° C., washed with K-36 buffer (0.05M K2HPO4, 0.05M KH2PO4, 0.1M KCl, 0.15M NaCl, pH7.0) twice, and disrupted by adding 30 μL of 2×SDS-PAGE sample buffer and by boiling for 5 minutes. Ten μL of lysate each was then transferred to a tube containing 5 mL of biosafe liquid II and used for quantification of ^35S-Cys-Met incorporation using the protocol 4 (^35S) in a liquid scintillation counter (TRI-CARB 2100TR, PerkinElmer, Waltham, Mass.). For visualizing the radiolabel incorporation into bacterial proteins, equal volumes of sample lysates were also separated in an SDS/PAGE and the gel was dried and exposed to an X-ray film. Similarly, cell-free growth experiments were carried out in the absence of ^35S-Cys-Met, resolved on an SDS-PAGE gel, and stained using silver nitrate staining kit (Pierce/ThermoFisher Scientific) as per the manufacturer's recommendations.

[2] = test system: A. phagocytophilum cell-free phagosomes; test: 35S Cys-Met incorporation into cell-free phagosomes; format: cell-based, Anaplasma phagocytophilum; conditions: energy source or CHL in axenic medium
Protocol: (§1) Protein synthesis by ^35S-cysteine-methionine incorporation: Protein synthesis in cell-free purified phagosomes of A. phagocytophilum or E. chaffeensis was measured by incorporation of […] (Perkin Elmer, Waltham, Mass.) as described previously. For normalization of bacterial total protein content, the suspension of the cell-free phagosomes were lysed in 1% (wt/vol) SDS for 5 minutes at 100° C. and the total protein concentration was determined using Protein Assay kit (Bio-Rad, Hercules, Calif.). Subsequently, the suspensions of cell-free phagosomes were equally split into micro-centrifuge tubes at the amount of 30 μg total protein. Partially opened micro-centrifuge tubes containing 500 μL of medium supplemented with 70 μCi of ^35S-Cys-Met were incubated 24 hours at 37° C. in a tri-gas incubator set to maintain 2.5% O2. The cell-free organisms were pelleted at the end of incubation by centrifugation at 15,000×g for 15 minutes at 4° C., washed with K-36 buffer (0.05M K2HPO4, 0.05M KH2PO4, 0.1M KCl, 0.15M NaCl, pH7.0) twice, and disrupted by adding 30 μL of 2×SDS-PAGE sample buffer and by boiling for 5 minutes. Ten μL of lysate each was then transferred to a tube containing 5 mL of biosafe liquid II and used for quantification of ^35S-Cys-Met incorporation using the protocol 4 (^35S) in a liquid scintillation counter (TRI-CARB 2100TR, PerkinElmer, Waltham, Mass.). For visualizing the of radiolabel incorporation into phagosomes proteins, equal volumes of sample lysates were also separated in an SDS/PAGE and the gel was dried and exposed to an X-ray film. Similarly, cell-free growth experiments were carried out in the absence of added ^35S-Cys-Met, resolved on an SDS-PAGE gel and stained using silver nitrate staining kit (Pierce/ThermoFisher Scientific) as per the manufacturer's recommendations.

[3] = test system: E. chaffeensis cell-free phagosomes; test: as above; format: cell-based, Ehrlichia chaffeensis; conditions: energy source or CHL in axenic medium
Protocol: as §1

[4] = test system: A. phagocytophilum cell-free phagosome; test: Protein biosynthesis by protein fractionation, silver stained SDS polyacrylamide gel; format: cell-based, Anaplasma phagocytophilum; conditions: FIGS. 15A and 15B, CHL-containing lanes
Protocol: Sodium dodecyl sulfate polyacrylamide gel electrophoresis: Five μL of NuPAGE LDS sample buffer and 2 μL of NuPAGE reducing agent (Invitrogen/ThermoFisher Scientific) were added to each of 10 μL of sample solution following cell-free incubation experiments in the axenic medium, boiled for 5 minutes, and then loaded onto a Mini-PROTEAN Precast Bis-Tris 4% to 14% gels (Bio-rad, Hercules, Calif.) and subjected to electrophoresis (100 mA/gel for 60 minutes). The gels were then stained with Silver staining kit (Pierce/ThermoFisher Scientific) according to the manufacturer's recommendations.
Western blot analysis to assess protein synthesis: For detection of the DnaK and P28 proteins of E. chaffeensis or the Dnak of A. phagocytophilum, the above described electrophoresed proteins were transferred onto a nitrocellulose membrane (Thermo Fisher Scientific, Waltham, Mass.) by subjecting to electro-blotting using an electrophoretic transfer unit (Bio-Rad). Protein transfer buffer was prepared as per the manufacturer's instructions and used in the protein transfer protocols. Subsequently, E. chaffeensis DnaK and P28 expressions were assessed using the polyclonal rabbit antisera raised against a recombinant E. chaffeensis proteins for DnaK and P28, respectively. […]

O=C(N[C@H](CO)[C@H](O)c1ccc([N+](=O)[O-])cc1)C(Cl)Cl [CHL, chloramphenicol, reference compound]
protein synthesis (35S Cys-Met incorporation) when inhibitor included in the media [1]: abolished | incorporation of 35S Cys-Met ([2]; FIG. 12A photograph): no incorporation | incorporation of 35S Cys-Met ([2]; FIG. 12C graph): no incorporation | incorporation of 35S Cys-Met ([3]; FIG. 12B photograph): no incorporation | incorporation of 35S Cys-Met ([3]; FIG. 12D graph): no incorporation | protein synthesis (protein abundance, silver stained gel) [4]: no synthesis

CO[C@H]1/C=C/O[C@@]2(C)Oc3c(C)c(O)c4c(O)c(c(/C=N/N5CCN(C)CC5)c(O)c4c3C2=O)NC(=O)/C(C)=C\C=C\[C@H](C)[C@H](O)[C@@H](C)[C@@H](O)[C@@H](C)[C@H](OC(C)=O)[C@@H]1C [rifampin, reference compound]
protein synthesis (35S Cys-Met incorporation) when inhibitor included in the media [1]: abolished

O=C[C@H](O)[C@@H](O)[C@H](O)[C@H](O)COP(=O)(O)O [G6P, glucose 6-phosphate]
protein biosynthesis with different energy sources [1]: supported the protein biosynthesis similarly | incorporation of 35S Cys-Met ([2]; FIG. 12A photograph): showed incorporation | incorporation of 35S Cys-Met ([2]; FIG. 12C graph): showed incorporation | incorporation of 35S Cys-Met ([3]; FIG. 12B photograph): showed incorporation | incorporation of 35S Cys-Met ([3]; FIG. 12D graph): showed incorporation

CC(=O)[O-].[Na+] [sodium acetate]
protein biosynthesis with different energy sources [1]: supported the protein biosynthesis similarly

Nc1ncnc2c1ncn2[C@@H]1O[C@H](COP(=O)(O)OP(=O)(O)OP(=O)(O)O)[C@@H](O)[C@H]1O [ATP, adenosine triphosphate]
incorporation of 35S Cys-Met ([2]; FIG. 12A photograph): showed incorporation | incorporation of 35S Cys-Met ([2]; FIG. 12C graph): showed incorporation | incorporation of 35S Cys-Met ([3]; FIG. 12B photograph): showed incorporation | incorporation of 35S Cys-Met ([3]; FIG. 12D graph): showed incorporation

O[C@H](CS)[C@H](O)CS (racemic) [DTT, Dithiothreitol]
impact of exclusion of reducing agent on protein biosynthesis ([1]; axenic medium with G6P, absence of DTT, RC fraction): only a marginal negative effect

O=C(O)CCC(=O)C(=O)O [alpha ketoglutarate]
protein biosynthesis with different energy sources [1]: supported the protein biosynthesis similarly
